Measurements reported in the supplement of paper PMC10307832.

Tests used:
Assay in all cases: relative viability (nuclei count vs DMSO), 5 days (fraction); higher = more cells survive
NCI-H1915 = test system: NCI-H1915
How it was run: (§1)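 Lung cancer cell lines were seeded in 1536-well plates and dosed by pin tool the next day, with either a single drug or a fixed anchor-drug dose combined with five library-drug doses (not always all listed) spaced in √10 steps. Five days later, one step fixed the cells and stained their nuclei (final 0.05% Triton X-100, 1% formaldehyde, 1 ug/ml Hoechst), and nuclei were counted on 4× images. Relative viability is the nuclei count in treated wells divided by the count in vehicle wells, and each value is the median of duplicate plates.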

NCI-H1563 = test system: NCI-H1563
How it was run: as §1

201T = test system: 201T
How it was run: as §1

LOU-NH91 = test system: LOU-NH91
How it was run: as §1

NCI-H838 = test system: NCI-H838
How it was run: as §1

HOP-62 = test system: HOP-62
How it was run: as §1

NCI-H2126 = test system: NCI-H2126
How it was run: as §1

NCI-H1355 = test system: NCI-H1355
How it was run: as §1

NCI-H2347 = test system: NCI-H2347
How it was run: as §1

SW 1573 = test system: SW 1573
How it was run: as §1

NCI-H3122 = test system: NCI-H3122
How it was run: as §1

CAL-12T = test system: CAL-12T
How it was run: as §1

NCI-H1651 = test system: NCI-H1651
How it was run: as §1

NCI-H650 = test system: NCI-H650
How it was run: as §1

NCI-H322M = test system: NCI-H322M
How it was run: as §1

HCC-78 = test system: HCC-78
How it was run: as §1

LCLC-97TM1 = test system: LCLC-97TM1
How it was run: as §1

NCI-H441 = test system: NCI-H441
How it was run: as §1

SK-LU-1 = test system: SK-LU-1
How it was run: as §1

BEN = test system: BEN
How it was run: as §1

With `Cc1csc(=NC2CCCCC2)n1/N=C/c1ccc(O)c(O)c1O` [MIM1] + CC(C)C[C@H](NC(=O)[C@H](Cc1ccccc1)NC(=O)c1cnccn1)B(O)O [Bortezomib] (partner 0.002 µM) the relative viability (NCI-H1915; first compound 0.2 µM) was 0.989, the relative viability (NCI-H1915; first compound 0.6325 µM) was 0.857 and the relative viability (NCI-H1915; first compound 2 µM) was 0.898. For the same compound, the relative viability (NCI-H1915; first compound 6.325 µM) was 0.461, the relative viability (NCI-H1915; first compound 20 µM) was 0.725 and the relative viability (NCI-H1563; first compound 0.2 µM) was 0.894. For the same compound, the relative viability (NCI-H1563; first compound 0.6325 µM) was 0.96, the relative viability (NCI-H1563; first compound 2 µM) was 0.744 and the relative viability (NCI-H1563; first compound 6.325 µM) was 0.563. The relative viability (NCI-H1563; first compound 20 µM) was 0.465, the relative viability (201T; first compound 0.2 µM) was 1.09 and the relative viability (201T; first compound 0.6325 µM) was 1.08. The relative viability (201T; first compound 2 µM) was 1.08, the relative viability (201T; first compound 6.325 µM) was 0.779 and the relative viability (201T; first compound 20 µM) was 0.82. It also gave a relative viability (LOU-NH91; first compound 0.2 µM) of 0.462, a relative viability (LOU-NH91; first compound 0.6325 µM) of 0.53 and a relative viability (LOU-NH91; first compound 2 µM) of 0.447. For the same compound, the relative viability (LOU-NH91; first compound 6.325 µM) was 0.35, the relative viability (LOU-NH91; first compound 20 µM) was 0.267 and the relative viability (NCI-H838; first compound 0.2 µM) was 0.869. It also gave a relative viability (NCI-H838; first compound 0.6325 µM) of 0.808, a relative viability (NCI-H838; first compound 2 µM) of 0.78 and a relative viability (NCI-H838; first compound 6.325 µM) of 0.53. The relative viability (NCI-H838; first compound 20 µM) was 0.136, the relative viability (HOP-62; first compound 0.2 µM) was 1.04 and the relative viability (HOP-62; first compound 0.6325 µM) was 0.611. It also gave a relative viability (HOP-62; first compound 2 µM) of 0.746, a relative viability (HOP-62; first compound 6.325 µM) of 0.494 and a relative viability (HOP-62; first compound 20 µM) of 0.116. The relative viability (NCI-H2126; first compound 0.2 µM) was 1.13, the relative viability (NCI-H2126; first compound 0.6325 µM) was 1.1 and the relative viability (NCI-H2126; first compound 2 µM) was 1.13. For the same compound, the relative viability (NCI-H2126; first compound 6.325 µM) was 1.03, the relative viability (NCI-H2126; first compound 20 µM) was 1 and the relative viability (NCI-H1355; first compound 0.2 µM) was 1.26. It also gave a relative viability (NCI-H1355; first compound 0.6325 µM) of 0.978, a relative viability (NCI-H1355; first compound 2 µM) of 1.22 and a relative viability (NCI-H1355; first compound 6.325 µM) of 0.871. For the same compound, the relative viability (NCI-H1355; first compound 20 µM) was 0.916, the relative viability (NCI-H2347; first compound 0.2 µM) was 0.944 and the relative viability (NCI-H2347; first compound 0.6325 µM) was 1.03. For the same compound, the relative viability (NCI-H2347; first compound 2 µM) was 0.939, the relative viability (NCI-H2347; first compound 6.325 µM) was 0.798 and the relative viability (NCI-H2347; first compound 20 µM) was 0.578. It also gave a relative viability (SW 1573; first compound 0.2 µM) of 0.937, a relative viability (SW 1573; first compound 0.6325 µM) of 1.05 and a relative viability (SW 1573; first compound 2 µM) of 0.978. The relative viability (SW 1573; first compound 6.325 µM) was 0.811, the relative viability (SW 1573; first compound 20 µM) was 0.592 and the relative viability (NCI-H3122; first compound 0.2 µM) was 1. It also gave a relative viability (NCI-H3122; first compound 0.6325 µM) of 1.06, a relative viability (NCI-H3122; first compound 2 µM) of 0.999 and a relative viability (NCI-H3122; first compound 6.325 µM) of 0.986. For the same compound, the relative viability (NCI-H3122; first compound 20 µM) was 0.235, the relative viability (CAL-12T; first compound 0.2 µM) was 1.01 and the relative viability (CAL-12T; first compound 2 µM) was 1.04. It also gave a relative viability (CAL-12T; first compound 6.325 µM) of 0.867, a relative viability (CAL-12T; first compound 20 µM) of 0.429 and a relative viability (NCI-H1651; first compound 0.2 µM) of 0.92. The relative viability (NCI-H1651; first compound 0.6325 µM) was 0.823, the relative viability (NCI-H1651; first compound 2 µM) was 0.875 and the relative viability (NCI-H1651; first compound 6.325 µM) was 0.887. For the same compound, the relative viability (NCI-H1651; first compound 20 µM) was 0.685, the relative viability (NCI-H650; first compound 0.2 µM) was 0.769 and the relative viability (NCI-H650; first compound 0.6325 µM) was 0.73. The relative viability (NCI-H650; first compound 2 µM) was 0.682, the relative viability (NCI-H650; first compound 6.325 µM) was 0.832 and the relative viability (NCI-H650; first compound 20 µM) was 0.296. The relative viability (NCI-H322M; first compound 0.2 µM) was 1.21, the relative viability (NCI-H322M; first compound 0.6325 µM) was 1.2 and the relative viability (NCI-H322M; first compound 2 µM) was 1.35. It also gave a relative viability (NCI-H322M; first compound 6.325 µM) of 1.17, a relative viability (NCI-H322M; first compound 20 µM) of 1.08 and a relative viability (HCC-78; first compound 0.2 µM) of 0.491. It also gave a relative viability (HCC-78; first compound 0.6325 µM) of 0.555, a relative viability (HCC-78; first compound 2 µM) of 0.559 and a relative viability (HCC-78; first compound 6.325 µM) of 0.418. The relative viability (HCC-78; first compound 20 µM) was 0.4, the relative viability (LCLC-97TM1; first compound 0.2 µM) was 0.66 and the relative viability (LCLC-97TM1; first compound 0.6325 µM) was 0.811. The relative viability (LCLC-97TM1; first compound 2 µM) was 0.214, the relative viability (LCLC-97TM1; first compound 6.325 µM) was 0.346 and the relative viability (LCLC-97TM1; first compound 20 µM) was 0.0592. The relative viability (NCI-H441; first compound 0.2 µM) was 0.593, the relative viability (NCI-H441; first compound 0.6325 µM) was 0.418 and the relative viability (NCI-H441; first compound 2 µM) was 0.681. The relative viability (NCI-H441; first compound 6.325 µM) was 0.521, the relative viability (NCI-H441; first compound 20 µM) was 0.171 and the relative viability (SK-LU-1; first compound 0.2 µM) was 1.05. The relative viability (SK-LU-1; first compound 0.6325 µM) was 1.09, the relative viability (SK-LU-1; first compound 2 µM) was 1.09 and the relative viability (SK-LU-1; first compound 6.325 µM) was 0.962. For the same compound, the relative viability (SK-LU-1; first compound 20 µM) was 0.947, the relative viability (BEN; first compound 0.2 µM) was 0.719 and the relative viability (BEN; first compound 0.6325 µM) was 1.01. It also gave a relative viability (BEN; first compound 2 µM) of 0.929, a relative viability (BEN; first compound 6.325 µM) of 0.735 and a relative viability (BEN; first compound 20 µM) of 0.183.
